Reference: publication PMC9872612, “Mouse α-Defensins: Structural and Functional Analysis of the 17 Cryptdin Isoforms Identified from a Single Jejunal Crypt” (Infection and Immunity, 2022)
Several values for one entry are separate records, joined by “and”; a condition that tells them apart may be missing. Equal entries are not always repeated. Positions of bridges follow the written chain, without caps; N, C: chain ends. No end group written: not given here.

Legend:
[1] = dynamic light scattering (DLS) particle size / self-association in solution; type: physicochemical; details: DLS number distribution, equilibrated 120 s, room temperature, Malvern Zetasizer, representative
Experimental: For verification, we subjected the four cryptdin peptides at 10 μM to dynamic light scattering (DLS) analysis in phosphate saline buffers at pH 7.4 and pH 3.0. […] However, the particle sizes of Crp1 and Crp11 shifted dramatically at the elevated pH, to ~200 nm and >1,000 nm, respectively, indicative of formation of high-ordered soluble aggregates in solution. These DLS data are in qualitative agreement with the SPR findings.
Of note, Cryp1 and Cryp11 are among the weakest cryptdins against E. coli and S. aureus, whereas Cryp4 and Cryp14 are potently bactericidal. This phenomenon raised an intriguing possibility that the ability of cryptdins to self-associate in solution could perhaps inform their antibacterial activity.
Dynamic light scattering (DLS) is a technique that can be used to measure the hydrodynamic diameter of proteins in solution. The principle of this technique lies in the fact that the apparent size of a protein molecule is inversely related to the speed at which it diffuses in a constant, random Brownian motion; size information can be derived mathematically through deconvolution algorithms once the rate at which the intensity of scattered laser light fluctuates as a function of time is determined by DLS ([93]). […]

[2] = system: same cryptdin peptide immobilized on a CM5 sensor chip; experiment: surface plasmon resonance self-association of cryptdins; type: binding, mouse; details: 15.6-2,000 nM analyte over 400 to 500 RU of the same peptide on CM5 chip, 25°C, 10 mM HEPES, 150 mM NaCl, 3 mM EDTA, surfactant P20, pH 7.4; additional 150 mM NaCl for Crp1 and Crp11; Kd unattainable
Experimental: We examined Crp1, Crp4, Crp11, and Crp14 for their ability to self-associate at 25°C in 10 mM HEPES, 150 mM NaCl, 3 mM EDTA, 0.005% surfactant P20 (pH 7.4) using surface plasmon resonance (SPR) techniques. […] Due to the heterogenetic nature of defensin self-association and the lack of an appropriate mathematic model for data analysis, an accurate measurement of thermodynamic parameters such as Kd was unattainable.
FIG 10 Representative association and dissociation kinetics of cryptdins analyzed by surface plasmon resonance. Cryptdins in a 2-fold dilution series at concentrations ranging from 15.625 to 2000 nM were analyzed on self-immobilized sensor chips with resonance units (RUs) of 404 for Crp1 (A), 541 for Crp4 (B), 458 for Crp11 (C), 488 for Crp14 (D). To suppress nonspecific electrostatic interactions, an additional 150 mM NaCl was added to the running buffer for Crp1 and Crp11.
Surface plasmon resonance (SPR) experiments were performed, as described previously ([80]), on a BIAcore T200 system, at 25°C, in HBS-EP buffer (10 mM HEPES, 150 mM NaCl, 3 mM EDTA, […] surfactant P20 [pH 7.4]), with or without additional 150 mM NaCl. […] Analytes in a 2-fold dilution series at concentrations varying from 15.625 to 2,000 nM were injected into the flow cells at 30 μL/min in the running buffer, and association and dissociation assessed for 5 and 10 min, respectively. […]

[3] = system: S. aureus ATCC 29213; experiment: virtual colony count (vCC) bactericidal assay, S. aureus; type: cell-based, Staphylococcus aureus
Experimental: (§1) All cryptdins were subjected to a virtual colony count assay (vCC) we have previously developed ([67]), in which E. coli ATCC 25922 and S. aureus ATCC 29213 are exposed to a 2-fold serial dilution of cryptdin for 2 h in 10 mM sodium phosphate buffer (pH 7.4), before bacterial growth in the presence of Mueller-Hinton broth is monitored spectrophotometrically at 650 nm for a period of 12 h. The dose-dependent killing of E. coli and S. aureus by all 17 cryptdins is shown as bacterial survival curves in Fig. 6. The virtual lethal doses (vLDs) of cryptdins at 50%, 10%, 1% and 0.1% bacterial survival (or the vLD50, vLD90, vLD99, and vLD99.9 values) are tabulated in Table 1. The bactericidal activity of the Crp1 subclass of cryptdins is highly variable despite a high degree of sequence identity, with Crp1, Crp6, Crp11, and Crp16 being the weakest against both strains and Crp3, Crp8 to Crp10, Crp13, Crp14, and Crp17 being the strongest. The vLD50, vLD90, vLD99 and vLD99.9 values for Crp11 to E. coli differ from those for Crp14 by 3.4-, 7.0-, 11.8-, and 12.7-fold, respectively; for comparison, the vLD values for Crp11 to S. aureus are 3.1-, 5.0-, 6.8-, and 8.1-fold versus those for Crp10, respectively. Overall, S. aureus appears more susceptible to cryptdin killing than E. coli.
(§2) Antimicrobial assays against E. coli ATCC 25922 and S. aureus ATCC 29213 were conducted using a published 96-well turbidimetric method called “virtual colony count” ([67]). Briefly, a 2-fold dilution series of cryptdin, ranging from 1 to 256 μg/mL in 10 mM sodium phosphate (pH 7.4), was incubated at 37°C for 2 h with E. coli or S. aureus at 1 × 10^6 CFU/mL (a total volume of 100 μL), followed by the addition of 100 μL of twice-concentrated Mueller-Hinton broth (MHB). In addition to […] controls containing no cryptdin, a negative control termed “input” consisted of a portion of the same cell suspension kept on ice during the initial 2 h of incubation and added to the microplate just before addition of 100 μL of twice-concentrated MHB. Kinetic measurements of bacterial growth at 37°C were taken every 5 min over the next 12 h spectrophotometrically at 650 nm using a Tecan Spark plate reader. Data analysis utilized a Visual Basic script to automate the determination of the time necessary for each growth curve to reach a threshold change in optical density at 650 nm of 0.02 (ΔOD650), as previously described ([67]). Since the threshold times are inversely and linearly dependent on the logarithmic concentration of bacteria ([67]), survival data can be readily inferred from these calibration curves established in the absence of cryptdin. The rate of survival was calculated as the number of CFU of cryptdin-treated cells/number of CFU of control cells.

[4] = system: E. coli ATCC 25922; experiment: virtual colony count (vCC) bactericidal assay, E. coli; type: cell-based, Escherichia coli
Experimental: as §1, §2

[5] = virtual lethal dose killing 90% of input cells, 2 h at 37°C in 10 mM sodium phosphate pH 7.4, three independent assays

## Crp1: mouse α-defensin cryptdin isoform 1, chemically synthesized and oxidatively folded, three disulfides (LRDLVCYCRSRGCKGRERMNGTCRKGHLLYTLCCR; disulfide 13-33, 8-23, 6-34; not fully specified; UniProt P11477 59-93, looked up)
[1]; 10 μM peptide in phosphate saline buffer pH 3.0, filtered 0.22 μm disc membrane
  particle size in diameter by DLS, pH 3.0: around 1 nm
[1]; 10 μM peptide in phosphate saline buffer pH 7.4, filtered 0.22 μM disc membrane
  particle size in diameter by DLS, pH 7.4: ~ 200 nm
[2]
  self-association/dissociation kinetics by SPR: slow association, followed by slow dissociation kinetics
[3]; vCC survival curves, 2-fold dilution series, mean of triplicate experiments
  concentration at which S. aureus was completely killed / growth eliminated: 32 µg/mL
[3]; virtual lethal dose killing 50% of input cells, 2 h at 37°C in 10 mM sodium phosphate pH 7.4, 1 × 10^6 CFU/mL, three independent assays
  Mean vLD ± SD, S. aureus ATCC 29213, vLD50: 3.9 ± 0.6 µg/mL
[3]; [5]
  Mean vLD ± SD, S. aureus ATCC 29213, vLD90: 6.1 ± 0.5 µg/mL
[3]; virtual lethal dose killing 99% of input cells, 2 h at 37°C in 10 mM sodium phosphate pH 7.4, three independent assays
  Mean vLD ± SD, S. aureus ATCC 29213, vLD99: 9.1 ± 0.3 µg/mL
[3]; virtual lethal dose killing 99.9% of input cells, 2 h at 37°C in 10 mM sodium phosphate pH 7.4, three independent assays
  Mean vLD ± SD, S. aureus ATCC 29213, vLD99.9: 11.9 µg/mL and 11.9 ± 0.5 µg/mL
[4]; peptide at 256 μg/mL, vCC
  reduction of E. coli survival: 5 orders of magnitude
[4]; virtual lethal dose killing 50% of input cells, 2-fold dilutions 1-256 μg/mL, 2 h at 37°C in 10 mM sodium phosphate pH 7.4, 1 × 10^6 CFU/mL, then MHB growth 12 h read at 650 nm, three independent assays
  Mean vLD ± SD, E. coli ATCC 25922, vLD50: 5.9 ± 0.3 µg/mL
[4]; [5]
  Mean vLD ± SD, E. coli ATCC 25922, vLD90: 13.4 ± 0.6 µg/mL
[4]; virtual lethal dose killing 99% of input cells, 2 h at 37°C in 10 mM sodium phosphate pH 7.4, three independent assays, LOD = limit of detection
  Mean vLD ± SD, E. coli ATCC 25922, vLD99: 25.4 ± 2.3 µg/mL
[4]; virtual lethal dose killing 99.9% of input cells, 2 h at 37°C in 10 mM sodium phosphate pH 7.4, three independent assays, LOD = limit of detection
  Mean vLD ± SD, E. coli ATCC 25922, vLD99.9: 41.9 ± 4.8 µg/mL
